Experiments:
[1] = system: bPP-induced food intake; assay: Bovine pancreatic polypeptide (bPP)-induced food intake in Sprague-Dawley rats; assay type: in vivo; settings: 1 hour prior to ICV bPP
Description: Male Sprague-Dawley rats aged 7 weeks (Charles River, Japan) were maintained under the controlled temperature (23±3° C.), humidity (55±15%) and light-dark cycle (7:00-19:00 light on). Rats were housed individually with ad libitum access food (CE-2, Clea Japan) and tap water. Rats were anesthetized with sodium pentobarbital (50 mg/kg, i.p., Dainabot, Japan). A permanent stainless steel guide cannula for intracerebroventricular (ICV) injection (21 gauge, 10 mm long) was stereotaxically implanted into the right lateral ventricle. The stereotaxic coordinates used were as follows: 0.9 mm posterior and 1.2 mm lateral to the bregma and 1.5 mm ventral to the brain surface. Animals were allowed at least 6-day recovery postoperatively before the start of feeding experiment. The day before the experiment, they were handled and underwent mock injection, and nocturnal food intake was measured. Rats which ate more than 15 g during the night before the experiment were used for the following experiment. Test compounds were suspended in 0.5% methylcellulose and orally administered by gavage. Administration of test compounds usually began at 10:00. Dosing volume was 5 ml/kg. […] Two hour post-injection food intake was measured for each rat. […]

[2] = system: rats; assay: Observation of abnormal behavior after oral dosing in rats; assay type: in vivo; settings: 100 mg/kg p.o., during 24 hour after dosing
Description: Compound 100 was orally administered 1 hour prior to the ICV-injection of bPP in satiated male Sprague-Dawley rats. […] Thus, Compound 100 has a potent in vivo Y5 antagonistic activity without causing any abnormal behavior.

[3] = system: mice; assay: Observation of abnormal behavior after oral dosing in mice; assay type: in vivo; settings: 100 mg/kg p.o., during 24 hour after dosing

SMILES	melting point	further results
CS(=O)(=O)N1CC2(CCN(C(=O)Nc3cnc(-c4ccccc4)cn3)CC2)c2ccccc21 [Compound 100, 1 -Methanesulfonyl-N-(5-phenyl-2-pyrazinyl)spiro[indoline-3,4′-piperidine]-1′-carboxamide]	–	bPP-induced food intake ([1]; 1, 3, 10 and 30 mg/kg orally, satiated male rats, two hour post-injection food intake): suppressed bPP-induced food intake in a dose-dependent manner; minimum effective dose ([1]; oral, suppression of bPP-induced food intake): 3 mg/kg; abnormal behavior [2]: did not cause any abnormal behavior; abnormal behavior [3]: did not cause any abnormal behavior
CCS(=O)(=O)N1CC2(CCN(C(=O)Nc3cnc(-c4nncs4)cn3)CC2)c2ccccc21 [Compound 152, 1-ethylsulfonyl-N-[5-(1,3,4-thiadiazol-2-yl)-2-pyrazinyl]spiro[indoline-3,4′-piperidine]-1′-carboxamide]	193 to 194 °C	–
CCS(=O)(=O)N1CC2(CCN(C(=O)Nc3cnc(-c4ncns4)cn3)CC2)c2ccccc21 [Compound 153, 1-ethylsulfonyl-N-[5-(1,2,4-thiadiazol-5-yl)-2-pyrazinyl]spiro[indoline-3,4′-piperidine]-1′-carboxamide]	211 to 214 °C	–
CCS(=O)(=O)N1CC2(CCN(C(=O)Nc3cnc(-c4nncs4)cn3)CC2)c2ccc(F)cc21 [Compound 154, 1-ethylsulfonyl-6-fluoro-N-[5-(1,3,4-thiadiazol-2-yl)-2-pyrazinyl]spiro[indoline-3,4′-piperidine]-1′-carboxamide]	228 to 230 °C	–
CCS(=O)(=O)N1CC2(CCN(C(=O)Nc3cnc(-c4nncs4)cn3)CC2)c2cc(F)ccc21 [Compound 155, 1-ethylsulfonyl-5-fluoro-N-[5-(1,3,4-thiadiazol-2-yl)-2-pyrazinyl]spiro[indoline-3,4′-piperidine]-1′-carboxamide]	223 to 224 °C	–
CCS(=O)(=O)N1CC2(CCN(C(=O)Nc3cn(-c4cccc(F)c4)cn3)CC2)c2ccccc21 [Compound 203, 1-ethylsulfonyl-N-[1-(3-fluorophenyl)imidazol-4-yl]spiro[indoline-3,4′-piperidine]-1′-carboxamide]	200 to 202 °C	–
CN(C)C(=O)N1CC2(CCN(C(=O)Nc3nnc(-c4ccccc4)s3)CC2)c2ccccc21 [Compound 800, 1-Dimethylcarbamoyl-N-(5-phenyl-1,3,4-thiadiazol-2-yl)spiro[indoline-3,4′-piperidine]-1′-carboxamide]	267 °C	–

More lines, main results first:

melting point	SMILES	further results
215.5 to 215.8 °C	CS(=O)(=O)N1CC2(CCN(C(=O)Nc3cnc(-c4ccccc4)cn3)CC2)c2cc(F)ccc21 [Compound 202, 5-fluoro-1-methylsulfonyl-N-(5-phenyl-2-pyrazinyl)spiro[indoline-3,4′-piperidine]-1′-carboxamide]	–
180 to 181.5 °C	CCS(=O)(=O)N1CC2(CCN(C(=O)Nc3cn(-c4ccccc4F)cn3)CC2)c2ccccc21 [Compound 204, 1-ethylsulfonyl-N-[1-(2-fluorophenyl)imidazol-4-yl]spiro[indoline-3,4′-piperidine]-1′-carboxamide]	–
233 to 236 °C	CC(=O)c1ccc(NC(=O)N2CCC3(CC2)CN(S(N)(=O)=O)c2ccccc23)cc1 [Compound 300, N-(4-acetylphenyl)-1-sulfamoylspiro[indoline-3,4′-piperidine]-1′-carboxamide]	–
> 300 °C	NS(=O)(=O)N1CC2(CCN(C(=O)Nc3nnc(-c4ccccc4)s3)CC2)c2ccccc21 [Compound 400, N-(5-phenyl-1,3,4-thiadiazol-2-yl)-1-sulfamoylspiro[indoline-3,4′-piperidine]-1′-carboxamide]	–
226 to 227 °C	NS(=O)(=O)N1CC2(CCN(C(=O)Nc3cc(-c4ccccc4)no3)CC2)c2ccccc21 [Compound 402, N-(3-phenylisoxazol-5-yl)-1-sulfamoylspiro[indoline-3,4′-piperidine]-1′-carboxamide]	–
260 °C	CC(=O)N1CC2(CCN(C(=O)Nc3nnc(-c4ccccc4)s3)CC2)c2ccccc21 [Compound 600, 1-Acetyl-N-(5-phenyl-1,3,4-thiadiazol-2-yl)spiro[indoline-3,4′-piperidine]-1′-carboxamide]	–
211 to 212 °C	CS(=O)(=O)N1CC2(CCN(C(=O)Nc3cc(-c4ccccc4)no3)CC2)c2cccnc21 [Compound 1402, 7-aza-N-(3-phenyl-5-isoxazolyl)-1-methylsulfonylspiro[indoline-3,4′-piperidine]-1′-carboxamide]	–
